From patent US6893642B1, “Algae protein polysaccharide extraction and use thereof” (priority 1999, dated 2005)

Experiments:
mice injected with CTX = experiment: T-lymphocyte test; format: in vivo; settings: positive control: CTX 10 mg/kg/d then water p.o.
Protocol: Mice, body weight of 18-22 g, were randomly divided into a blank control group, positive control group, a higher dose group and a lower dose group, with 10 mice per group. The mice in the treated groups were injected with CTX at a dose of 10 mg/kg/d, and then treated with proteoglycan extracts of Spirulina via p.o., at the same dose as above. The mice in the positive control group were treated with CTX at a dose of 10 mg/kg/d, and then treated with water via p.o. the mice in the control group only were treated with water via p.o. after the treatment was continuously taken for 10 days, the treatment was stopped for 2 days. Blood was harvested from eye sockets of the mice for lymphocyte slices. After incubation and dyeing, T-lymphocyte percentage was determined.

[1] = molecular target: T1, PTK picked up from A431 cell containing the EGFR (Homo sapiens, UniProt P00533); experiment: Phosphorylation of protein tyrosine kinase (PTK); format: biochemical
T1 construct: we used A431 cell containing the EGFR for picking up PTK; endogenous in cells; host or cells: A431 cells
Excerpt: Epidermal growth factor receptor (EGFR), a PTK of receptor type, is a single-stranded trans-membrane glycoprotein consisting of 1186 amino acids, whose molecular weight is […], and exists extensively on the epithelial membrane of the mammals. The C end of the EGFR can recognize and activate many cellular substrates after phosphorylated, then effect on metabolization, growth and carcinogenesis of a cell. […] In our research, we used A431 cell containing the EGFR for picking up PTK, so as to observe the effect of the proteoglycan extract of spirulina on phosphorylation of PTK.

T1 sequence (P00533 25-1210): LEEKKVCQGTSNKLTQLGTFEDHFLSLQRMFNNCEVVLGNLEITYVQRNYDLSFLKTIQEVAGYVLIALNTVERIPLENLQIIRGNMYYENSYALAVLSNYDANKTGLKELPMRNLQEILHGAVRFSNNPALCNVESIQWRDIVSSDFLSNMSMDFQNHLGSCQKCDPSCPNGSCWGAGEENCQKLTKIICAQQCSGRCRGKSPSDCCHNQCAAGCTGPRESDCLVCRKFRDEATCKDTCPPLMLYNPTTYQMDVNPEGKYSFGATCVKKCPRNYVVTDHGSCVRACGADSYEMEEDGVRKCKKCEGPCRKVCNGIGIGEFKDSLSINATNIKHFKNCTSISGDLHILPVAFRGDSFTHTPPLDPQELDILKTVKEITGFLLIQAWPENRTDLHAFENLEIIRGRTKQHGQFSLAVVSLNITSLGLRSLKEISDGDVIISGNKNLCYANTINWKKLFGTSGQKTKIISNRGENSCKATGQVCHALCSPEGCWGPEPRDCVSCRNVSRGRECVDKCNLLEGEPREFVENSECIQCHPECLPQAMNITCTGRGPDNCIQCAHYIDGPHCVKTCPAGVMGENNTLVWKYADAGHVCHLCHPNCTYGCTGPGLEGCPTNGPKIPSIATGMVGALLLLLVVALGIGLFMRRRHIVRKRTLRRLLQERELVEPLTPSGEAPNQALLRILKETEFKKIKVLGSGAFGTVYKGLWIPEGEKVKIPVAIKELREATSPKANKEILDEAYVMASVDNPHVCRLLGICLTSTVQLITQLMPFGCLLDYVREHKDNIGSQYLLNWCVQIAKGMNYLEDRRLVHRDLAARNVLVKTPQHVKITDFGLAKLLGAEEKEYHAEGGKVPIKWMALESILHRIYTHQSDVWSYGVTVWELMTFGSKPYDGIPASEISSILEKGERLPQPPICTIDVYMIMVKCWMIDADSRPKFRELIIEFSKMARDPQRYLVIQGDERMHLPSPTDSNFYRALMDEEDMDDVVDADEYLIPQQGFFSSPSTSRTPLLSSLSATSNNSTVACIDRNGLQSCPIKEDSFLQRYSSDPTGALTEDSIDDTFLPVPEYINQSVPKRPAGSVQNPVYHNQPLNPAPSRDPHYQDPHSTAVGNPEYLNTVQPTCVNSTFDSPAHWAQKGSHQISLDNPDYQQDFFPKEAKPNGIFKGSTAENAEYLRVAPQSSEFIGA

SMILES	T-lymphocyte percentage (mice injected with CTX) [%]	inhibition rate ([1]; Results 1, positive control, 2.5 mM)	inhibition rate ([1]; Results 2, positive control, 0.25 mM)	inhibition rate ([1]; Results 3, positive control, 0.25 mM)
O=P1(N(CCCl)CCCl)NCCCO1 (stereo not shown) [CTX]	25.6 ± 2.51	–	–	–
N#CC(C#N)=Cc1cc(O)c(O)c(O)c1 [tyrphostin 25]	–	Positive control: 2.5 mM tyrphostin 25, inhibition rate: 100%	Positive control: 0.25 mM tyrphostin 25, inhibition rate: 86.1%	Positive control: 0.25 mM tyrphostin 25, inhibition rate: 80.5%
